Assay results as given in ChEMBL document CHEMBL1201862, “PubChem BioAssay data set” (2004).
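48-hour exposure; five concentrations; linearly interpolated endpoints. GI50 marks 50% less growth.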 The source made the active and inactive calls. Rule as the data show it: active = GI50 up to about 1.1 µM and inactive = higher.

What was measured:
Assay in all cases: DTP human tumour cell line panel, 48 h
MDA-MB-231 = test system: MDA-MB-231
T47D = test system: T47D
A498 = test system: A498
786-0 = test system: 786-0
SK-MEL-2 = test system: SK-MEL-2
M14 = test system: M14
TK-10 = test system: TK-10
SR = test system: SR
MDA-MB-435 = test system: MDA-MB-435
Hs-578T = test system: Hs-578T
NCI/ADR-RES = test system: NCI/ADR-RES
NCI-H226 = test system: NCI-H226
UACC-257 = test system: UACC-257
MDA-N = test system: MDA-N
U-251 = test system: U-251
PC-3 = test system: PC-3

Measured: GI50

c1ccc(NN/N=N/c2ccc(-c3nc4ccccc4[nH]3)cc2)cc1
inactive: MDA-MB-231 72.8 µM | T47D 8.17 µM | A498 43.7 µM | 786-0 28.2 µM | SK-MEL-2 23.9 µM | M14 10.6 µM | TK-10 64.4 µM | SR 31.8 µM | MDA-MB-435 19.4 µM | Hs-578T 29.1 µM | NCI/ADR-RES 22.1 µM | NCI-H226 36.9 µM | UACC-257 28.6 µM | MDA-N 29.9 µM | U-251 40.4 µM | PC-3 26.8 µM

COC(=O)C(Cc1c[nH]c2ccccc12)NP(=O)(O)OCC1OC(n2ccc(N)nc2=O)C(O)C1O (configuration not stated)
inactive: MDA-MB-231 > 100 µM | T47D > 100 µM | A498 > 100 µM | 786-0 > 100 µM | M14 > 100 µM | TK-10 > 100 µM | SR 82.2 µM | MDA-MB-435 > 100 µM | Hs-578T > 100 µM | NCI/ADR-RES > 100 µM | NCI-H226 > 100 µM | UACC-257 > 100 µM | MDA-N > 100 µM | U-251 > 100 µM | PC-3 > 100 µM

c1ccc(CSC2(SCc3ccccc3)CCCC2)cc1
inactive: MDA-MB-231 > 10 µM | T47D > 10 µM | A498 > 10 µM | SK-MEL-2 > 10 µM | M14 > 10 µM | TK-10 > 10 µM | SR > 10 µM | MDA-MB-435 > 10 µM | Hs-578T 6.97 µM | NCI/ADR-RES > 10 µM | NCI-H226 > 10 µM | MDA-N > 10 µM | U-251 > 10 µM | PC-3 > 10 µM

CC1(C)CC(=O)C2=C(C1)OC1=C(CC(C)(C)CC1=O)C2c1ccccc1[N+](=O)[O-] (configuration not stated)
inactive: MDA-MB-231 > 100 µM | T47D > 100 µM | A498 > 100 µM | 786-0 > 100 µM | SK-MEL-2 > 100 µM | M14 > 100 µM | TK-10 > 100 µM | SR > 100 µM | MDA-MB-435 > 100 µM | Hs-578T > 100 µM | NCI/ADR-RES > 100 µM | NCI-H226 > 100 µM | MDA-N > 100 µM | U-251 > 100 µM | PC-3 > 100 µM

c1ccc(C(NC2=NCCO2)c2ccccc2)cc1
inactive: MDA-MB-231 > 10 µM | T47D > 10 µM | A498 5.75 µM | SK-MEL-2 > 10 µM | M14 > 10 µM | TK-10 > 10 µM | SR > 10 µM | MDA-MB-435 > 10 µM | Hs-578T > 10 µM | NCI/ADR-RES > 10 µM | NCI-H226 > 10 µM | MDA-N > 10 µM | U-251 > 10 µM | PC-3 > 10 µM

Cc1cnc(/N=c2\sc(C)cn2-c2ncc(C)s2)s1
inactive: MDA-MB-231 > 100 µM | T47D > 100 µM | 786-0 > 100 µM | M14 > 100 µM | TK-10 > 100 µM | SR > 100 µM | MDA-MB-435 > 100 µM | Hs-578T > 100 µM | NCI/ADR-RES > 100 µM | NCI-H226 > 100 µM | UACC-257 > 100 µM | MDA-N > 100 µM | U-251 > 100 µM | PC-3 > 100 µM

CC(=O)Oc1ccccc1C(=O)Nc1ncc([N+](=O)[O-])s1 [NITAZOXANIDE]
inactive: MDA-MB-231 21.8 µM | T47D 13.7 µM | A498 56.2 µM | 786-0 26.7 µM | SK-MEL-2 16.3 µM | M14 15.9 µM | TK-10 16.1 µM | MDA-MB-435 22.8 µM | Hs-578T 9.2 µM | NCI/ADR-RES 10.3 µM | NCI-H226 8.83 µM | UACC-257 17.2 µM | MDA-N 27.3 µM | U-251 19.4 µM | PC-3 9.53 µM

Cc1ccc(Nc2nc3ccccc3nc2NS(=O)(=O)c2ccc(N)cc2)cc1
inactive: MDA-MB-231 > 100 µM | T47D 44 µM | 786-0 82.4 µM | SK-MEL-2 29.4 µM | M14 57.7 µM | TK-10 45.9 µM | SR 20.7 µM | MDA-MB-435 30.7 µM | Hs-578T 65.5 µM | NCI/ADR-RES 61.8 µM | NCI-H226 78.7 µM | UACC-257 > 100 µM | MDA-N 41.4 µM | U-251 30.2 µM | PC-3 41.8 µM

O=c1[nH]nc(Cc2ccc(Cl)cc2)n1CCO
inactive: MDA-MB-231 > 100 µM | T47D > 100 µM | A498 > 100 µM | 786-0 > 100 µM | SK-MEL-2 > 100 µM | M14 > 100 µM | TK-10 > 100 µM | MDA-MB-435 > 100 µM | Hs-578T > 100 µM | NCI/ADR-RES > 100 µM | NCI-H226 > 100 µM | UACC-257 > 100 µM | MDA-N > 100 µM | U-251 > 100 µM | PC-3 > 100 µM

ClCC1(CCl)COC1
inactive: MDA-MB-231 > 100 µM | T47D > 100 µM | A498 > 100 µM | M14 > 100 µM | TK-10 > 100 µM | SR > 100 µM | MDA-MB-435 > 100 µM | Hs-578T > 100 µM | NCI/ADR-RES > 100 µM | NCI-H226 > 100 µM | UACC-257 > 100 µM | MDA-N > 100 µM | U-251 > 100 µM | PC-3 > 100 µM
